Common to all, as to assay type: biochemical
Assay [1] deals with T1, JAK1 (Homo sapiens, UniProt P23458).
T1 construct: purchased Invitrogen Corporation, Carlsbad, Calif; PV4775
The experiment in a line: JAK1 Inhibition Assay (Omnia kinase fluorescence peptide substrate assay). Particulars: averaged IC50 ranges; assay of Example B; 40 μM (Km app) or 1 mM ATP, 15 nM JAK1. From the text: (§1) The assays described in Examples A, B, C and D for the determination of Tyk2, JAK1, JAK2 and JAK3 kinase activity, respectively, utilized the Omnia® Kinase fluorescence peptide substrate-based technology (Invitrogen). The specific components of the assay mixture are described in Examples A, B, C and D. In these assays, Mg^2+ is chelated upon phosphorylation of the Omnia peptide by the kinase to form a bridge between the chelation-enhanced fluorophore Sox and the phosphate, resulting in an increase in fluorescence emission at 485 nm when excited at […]. The reactions were therefore read at excitation 360 nm and emission was measured at 485 nm every 50 seconds for 45 minutes using a PerkinElmer EnVision Multilabel Plate Reader.
(§2) The final buffer conditions for Tyk2, JAK1, JAK2, and JAK3 assays were as follows: 25 mM HEPES, pH 7.4, 10 mM MgCl2, 0.01% Triton X-100 and 1 mM DTT.
(§3) Compounds were prepared at 50× the final concentration in DMSO by conducting 3-fold serial dilutions from a 500-μM intermediate dilution to give a 10-point dosing curve having a high dose of 10 μM. Two-μL aliquots of these were transferred to a fresh plate for a ten-fold intermediate dilution with assay buffer. Five-μL aliquots of the diluted compounds were then transferred to 20-μL of assay mixtures described in Examples A, B, C and D for a final concentration of DMSO of 2%. A standard or reference compound was typically included on each assay plate to validate that plate. For each plate, percent of control (POC) values were calculated for each well according to the following equation:
(§4) where Xmax=Average Uninhibited Controls • Xmin=Average Background IC50's were estimated from the POC's using a standard 4-parameter logistic model:
(§5) where • A=Minimum Y (Bottom Asymptote) • B=Maximum Y (Top Asymptote) • C=EC50 • D=Slope Factor • X=Compound Concentration (nM) • Y=POC
(§6) The IC50 is defined as the concentration of inhibitor at which the POC equals 50 for the fitted curve.
Compounds of Formula I were screened for their ability to inhibit JAK1 using the general enzyme inhibition assay method, in which the assay mixture contained 40 μM (Km app) or 1 mM ATP, 8 μM Omnia® Y12 peptide (Catalog #IVGN KPZ3121C; Invitrogen Corporation, Carlsbad, Calif.) and 15 nM JAK1 in a total volume of 20 μL. JAK1 was purchased from Invitrogen Corporation, Carlsbad, Calif. (catalog #IVGN PV4775).

The target in assay [2] is T2, Human Tyk2 kinase domain (Homo sapiens, UniProt P29597).
T2 construct: comprising amino acids 886 to 1187 with 10 additional histidine residues; 10xHis (histidine tag) (C, cleaved yes); made in house
T2 sequence (P29597 886-1187): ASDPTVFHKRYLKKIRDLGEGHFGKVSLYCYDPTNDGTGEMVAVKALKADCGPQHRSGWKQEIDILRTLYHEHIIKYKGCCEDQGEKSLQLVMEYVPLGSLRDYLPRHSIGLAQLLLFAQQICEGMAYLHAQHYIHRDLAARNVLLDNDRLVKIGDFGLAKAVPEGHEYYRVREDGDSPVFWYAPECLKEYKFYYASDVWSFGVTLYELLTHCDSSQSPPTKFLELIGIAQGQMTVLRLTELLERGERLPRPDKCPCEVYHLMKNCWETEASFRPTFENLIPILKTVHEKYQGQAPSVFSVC
The assay can be described thus: Tyk2 Inhibition Assay (Omnia kinase fluorescence peptide substrate assay). Particulars: averaged IC50 ranges; assay of Example A; 10 μM (Km app) or 1 mM ATP, 2 nM Tyk2.
Text: as §1, §2, §3, §4, §5, §6
Compounds of Formula I were screened for their ability to inhibit Tyk2 using the general enzyme inhibition assay method, in which the assay mixture contained 10 μM (Km app) or 1 mM ATP, 8 μM Omnia® Y12 peptide (Catalog #IVGN KPZ3121C; Invitrogen Corporation, Carlsbad, Calif.) and 2 nM Tyk2 in a total volume of 20 μL. Human Tyk2 kinase domain, comprising amino acids 886 to 1187 with 10 additional histidine residues (histidine tag) on the carboxy terminus, was expressed and purified from bacculovirus in-house at Array BioPharma Inc. (Boulder, Colo.). The histidine tag was cleaved after purification using standard conditions.

For assay [3], the target named is T3, JAK3 (Homo sapiens, UniProt P52333).
T3 construct: purchased Invitrogen Corporation, Carlsbad, Calif; PV4080
T3 sequence (P52333 1-1124): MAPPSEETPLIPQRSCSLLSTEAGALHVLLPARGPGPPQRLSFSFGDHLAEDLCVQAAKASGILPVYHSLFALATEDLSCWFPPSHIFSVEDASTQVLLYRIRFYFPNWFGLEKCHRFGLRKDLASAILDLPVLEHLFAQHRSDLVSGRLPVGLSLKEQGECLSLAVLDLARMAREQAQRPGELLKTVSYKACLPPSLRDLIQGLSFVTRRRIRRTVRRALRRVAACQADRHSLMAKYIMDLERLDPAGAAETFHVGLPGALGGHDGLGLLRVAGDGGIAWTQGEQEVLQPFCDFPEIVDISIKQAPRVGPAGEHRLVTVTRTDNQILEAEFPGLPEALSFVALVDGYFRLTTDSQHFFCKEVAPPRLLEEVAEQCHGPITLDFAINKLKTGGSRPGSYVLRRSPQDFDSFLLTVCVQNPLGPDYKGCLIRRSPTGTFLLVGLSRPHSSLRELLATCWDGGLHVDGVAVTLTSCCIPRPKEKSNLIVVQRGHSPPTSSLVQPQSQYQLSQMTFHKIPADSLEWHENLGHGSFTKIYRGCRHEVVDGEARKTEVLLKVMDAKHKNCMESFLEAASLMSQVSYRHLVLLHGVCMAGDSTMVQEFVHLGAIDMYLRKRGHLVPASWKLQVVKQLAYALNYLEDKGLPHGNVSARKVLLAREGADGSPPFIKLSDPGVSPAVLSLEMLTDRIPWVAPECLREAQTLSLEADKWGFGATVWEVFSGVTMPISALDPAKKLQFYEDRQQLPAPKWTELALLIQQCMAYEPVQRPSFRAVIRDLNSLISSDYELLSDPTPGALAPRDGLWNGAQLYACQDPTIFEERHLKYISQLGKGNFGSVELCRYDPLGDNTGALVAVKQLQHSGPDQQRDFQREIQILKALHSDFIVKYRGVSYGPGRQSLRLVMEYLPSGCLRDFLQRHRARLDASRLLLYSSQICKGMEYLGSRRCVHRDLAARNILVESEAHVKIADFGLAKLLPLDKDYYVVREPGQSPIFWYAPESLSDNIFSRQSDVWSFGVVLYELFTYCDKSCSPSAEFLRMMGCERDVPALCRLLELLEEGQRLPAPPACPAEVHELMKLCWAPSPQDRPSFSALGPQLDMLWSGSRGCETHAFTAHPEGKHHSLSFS
The experiment in a line: JAK3 Inhibition Assay (Omnia kinase fluorescence peptide substrate assay). Conditions: averaged IC50 ranges; assay of Example D; 10 μM (Km app) or 1 mM ATP, 2.5 nM JAK3.
Text: as §1, §2, §3, §4, §5, §6
Compounds of Formula I were screened for their ability to inhibit JAK3 using the general enzyme inhibition assay method, in which the assay mixture contained 10 μM (Km app) or 1 mM ATP, 10 μM Omnia® Y7 peptide (Catalog #IVGN KNZ3071C, Invitrogen Corporation, Carlsbad, Calif.) and 2.5 nM JAK3 in a total volume of 20 μL. JAK3 was purchased from Invitrogen Corporation, Carlsbad, Calif. (catalog #IVGN PV4080).

The target of assay [4] is T4, JAK2 (Homo sapiens, UniProt O60674).
T4 construct: purchased Invitrogen Corporation, Carlsbad, Calif; PV4288
T4 sequence (O60674 whole entry): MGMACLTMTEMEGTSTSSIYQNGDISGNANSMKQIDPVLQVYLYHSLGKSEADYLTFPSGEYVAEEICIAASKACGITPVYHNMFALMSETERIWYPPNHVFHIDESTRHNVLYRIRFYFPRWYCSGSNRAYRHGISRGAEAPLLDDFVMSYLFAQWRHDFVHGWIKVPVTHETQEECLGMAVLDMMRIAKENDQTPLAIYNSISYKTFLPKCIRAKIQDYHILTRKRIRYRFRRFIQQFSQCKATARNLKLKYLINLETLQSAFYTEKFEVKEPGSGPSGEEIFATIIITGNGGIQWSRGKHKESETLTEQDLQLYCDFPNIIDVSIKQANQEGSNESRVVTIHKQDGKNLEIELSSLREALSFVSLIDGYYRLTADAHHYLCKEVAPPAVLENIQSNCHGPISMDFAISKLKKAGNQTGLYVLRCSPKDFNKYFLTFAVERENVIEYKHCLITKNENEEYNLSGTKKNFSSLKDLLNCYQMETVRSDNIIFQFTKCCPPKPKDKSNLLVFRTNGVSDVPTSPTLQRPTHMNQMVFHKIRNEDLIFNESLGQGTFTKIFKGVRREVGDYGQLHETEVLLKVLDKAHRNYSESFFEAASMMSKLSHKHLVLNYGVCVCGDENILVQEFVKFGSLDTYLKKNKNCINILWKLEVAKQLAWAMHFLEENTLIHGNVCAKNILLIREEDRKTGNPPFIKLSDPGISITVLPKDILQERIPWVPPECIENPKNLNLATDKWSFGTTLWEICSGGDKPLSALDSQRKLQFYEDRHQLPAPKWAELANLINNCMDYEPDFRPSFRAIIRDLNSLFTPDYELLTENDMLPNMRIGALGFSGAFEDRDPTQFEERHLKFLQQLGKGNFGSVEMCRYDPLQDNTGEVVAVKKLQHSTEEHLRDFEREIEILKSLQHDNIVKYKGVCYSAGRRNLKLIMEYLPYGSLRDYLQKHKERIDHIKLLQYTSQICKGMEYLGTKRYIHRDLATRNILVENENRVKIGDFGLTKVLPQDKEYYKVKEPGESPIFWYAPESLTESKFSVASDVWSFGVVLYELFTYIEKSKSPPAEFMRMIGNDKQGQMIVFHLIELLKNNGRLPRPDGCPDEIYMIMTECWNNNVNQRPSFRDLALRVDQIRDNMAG
The experiment in a line: JAK2 Inhibition Assay (Omnia kinase fluorescence peptide substrate assay). Conditions: averaged IC50 ranges; assay of Example C; 25 μM (Km app) or 1 mM ATP, 5 nM JAK2.
Text: as §1, §2, §3, §4, §5, §6
Compounds of Formula I were screened for their ability to inhibit JAK2 using the general enzyme inhibition assay method, in which the assay mixture contained 25 μM (Km app) or 1 mM ATP, 10 μM Omnia® Y7 peptide (Catalog #IVGN KNZ3071C, Invitrogen Corporation, Carlsbad, Calif.) and 5 nM JAK2 in a total volume of 20 μL. JAK2 was purchased from Invitrogen Corporation, Carlsbad, Calif. (catalog #IVGN PV4288).

T1 sequence (P23458 whole entry): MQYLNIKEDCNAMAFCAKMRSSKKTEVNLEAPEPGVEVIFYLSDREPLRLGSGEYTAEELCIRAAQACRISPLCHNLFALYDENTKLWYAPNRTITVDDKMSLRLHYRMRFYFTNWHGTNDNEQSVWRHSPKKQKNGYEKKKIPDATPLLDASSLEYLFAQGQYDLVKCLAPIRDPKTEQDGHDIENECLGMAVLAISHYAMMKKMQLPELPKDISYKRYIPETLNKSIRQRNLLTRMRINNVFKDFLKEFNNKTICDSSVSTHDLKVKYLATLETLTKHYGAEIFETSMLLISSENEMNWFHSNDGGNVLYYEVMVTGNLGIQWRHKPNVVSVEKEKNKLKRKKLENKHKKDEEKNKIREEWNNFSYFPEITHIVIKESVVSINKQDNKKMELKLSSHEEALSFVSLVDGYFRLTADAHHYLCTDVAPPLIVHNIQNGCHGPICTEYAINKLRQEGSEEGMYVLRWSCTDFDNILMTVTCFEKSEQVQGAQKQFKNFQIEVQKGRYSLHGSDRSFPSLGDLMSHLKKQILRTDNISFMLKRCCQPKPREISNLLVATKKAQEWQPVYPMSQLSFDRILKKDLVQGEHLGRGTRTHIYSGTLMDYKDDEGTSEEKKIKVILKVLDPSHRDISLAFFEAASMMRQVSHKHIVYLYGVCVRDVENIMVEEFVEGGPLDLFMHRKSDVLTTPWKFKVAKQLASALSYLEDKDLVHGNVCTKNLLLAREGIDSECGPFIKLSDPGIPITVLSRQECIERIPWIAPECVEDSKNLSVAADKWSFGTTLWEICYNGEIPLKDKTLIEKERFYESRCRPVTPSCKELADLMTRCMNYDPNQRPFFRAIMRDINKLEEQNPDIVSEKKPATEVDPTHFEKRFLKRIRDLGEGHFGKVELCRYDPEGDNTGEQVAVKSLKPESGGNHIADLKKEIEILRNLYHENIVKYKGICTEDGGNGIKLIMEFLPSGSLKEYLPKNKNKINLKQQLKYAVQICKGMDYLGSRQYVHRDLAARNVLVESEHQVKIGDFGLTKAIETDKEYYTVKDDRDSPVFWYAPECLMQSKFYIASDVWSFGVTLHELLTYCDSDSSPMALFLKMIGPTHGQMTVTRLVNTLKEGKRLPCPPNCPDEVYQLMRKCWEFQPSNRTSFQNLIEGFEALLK

For the compound `Cn1cc(-c2cc3nccn3c(-c3cnn(C(CC#N)c4cccc(C(F)(F)F)c4)c3)n2)cn1` (stereo not drawn) [Example 15, 3-(4-(7-(1-methyl-1H-pyrazol-4-yl)imidazo[1,2-c]pyrimidin-5-yl)-1H-pyrazol-1-yl)-3-(3-(trifiuoromethyl)phenyl)propanenitrile], the IC50 (as a rule, the midpoint of a concentration-inhibition curve) is 10 to 100 nM in assay [1], less than 10 nM in assay [2], 100 to 1000 nM in assay [3] and 10 to 100 nM in assay [4].
For `Cn1cc(-c2cc3nccn3c(-c3cnn(C(C)(CC#N)c4ccccc4)c3)n2)cn1` (stereo not drawn) [Example 16, 3-(4-(7-(1-methyl-1H-pyrazol-4-yl)imidazo[1,2-c]pyrimidin-5-yl)-1H-pyrazol-1-yl)-3-phenylbutanenitrile], the IC50 in assay [1] is greater than 1000 nM; in assay [2] it was 100 to 1000 nM; in assay [3], greater than 1000 nM; in assay [4], 100 to 1000 nM.
Consider `Cn1cc(-c2cc3nccn3c(-c3cnn(C(CC#N)C4CCCC4)c3)n2)cn1` (stereo not drawn) [Example 17, 3-cyclopentyl-3-(4-(7-(1-methyl-1H-pyrazol-4-yl)imidazo[1,2-c]pyrimidin-5-yl)-1H-pyrazol-1-yl)propanenitrile], for which the IC50 in assay [1] is 10 to 100 nM; in assay [2] it was less than 10 nM; in assay [3], greater than 1000 nM; in assay [4] it was 10 to 100 nM.
As to `Cn1cc(-c2cc3nccn3c(-c3cnn(C(CC#N)C(C)(C)C)c3)n2)cn1` (stereo not drawn) [Example 18, 4,4-dimethyl-3-(4-(7-(1-methyl-1H-pyrazol-4-yl)imidazo[1,2-c]pyrimidin-5-yl)-1H-pyrazol-1-yl)pentanenitrile], the IC50 in assay [1] was 100 to 1000 nM; in assay [2] it was 10 to 100 nM; in assay [3] it was greater than 1000 nM; in assay [4], 100 to 1000 nM.
Regarding `Cn1cc(-c2cc3nccn3c(-c3cnn(CCC#N)c3)n2)cn1` [Example 19, 3-(4-(7-(1-methyl-1H-pyrazol-4-yl)imidazo[1,2-c]pyrimidin-5-yl)-1H-pyrazol-1-yl)propanenitrile], the half-inhibitory concentration (IC50) in assay [1] is 100 to 1000 nM; in assay [2], 10 to 100 nM; in assay [3], greater than 1000 nM; in assay [4], 100 to 1000 nM.
As for `Cn1cc(-c2cc3nccn3c(-c3cnn(C(CC#N)C4CCC4)c3)n2)cn1` (stereo not drawn) [Example 20, 3-cyclobutyl-3-(4-(7-(1-methyl-1H-pyrazol-4-yl)imidazo[1,2-c]pyrimidin-5-yl)-1H-pyrazol-1-yl)propanenitrile], the IC50 in assay [1] is 10 to 100 nM; in assay [2] it was less than 10 nM; in assay [3] it was greater than 1000 nM; in assay [4] it was 10 to 100 nM.
On to `Cn1cc(-c2cc3nccn3c(-c3cnn(C4(CC#N)CCN(C(=O)OC(C)(C)C)CC4)c3)n2)cn1` [Example 21, tert-butyl 4-(cyanomethyl)-4-(4-(7-(1-methyl-1H-pyrazol-4-yl)imidazo[1,2-c]pyrimidin-5-yl)-1H-pyrazol-1-yl)piperidine-1-carboxylate], for which the half-inhibitory concentration (IC50) in assay [1] is greater than 1000 nM; in assay [2], 100 to 1000 nM; in assay [3], greater than 1000 nM; in assay [4], greater than 1000 nM.
For `Cn1cc(-c2cc3nccn3c(-c3cnn(C4(CC#N)CCCCC4)c3)n2)cn1` [Example 22, 2-(1-(4-(7-(1-methyl-1H-pyrazol-4-yl)imidazo[1,2-c]pyrimidin-5-yl)-1H-pyrazol-1-yl)cyclohexyl)acetonitrile], the IC50 in assay [1] is 100 to 1000 nM; in assay [2], 10 to 100 nM; in assay [3] it was greater than 1000 nM; in assay [4], 100 to 1000 nM.
For `Cn1cc(-c2cc3nccn3c(-c3cnn(C4(CC#N)CCCC4)c3)n2)cn1` [Example 23, 2-(1-(4-(7-(1-methyl-1H-pyrazol-4-yl)imidazo[1,2-c]pyrimidin-5-yl)-1H-pyrazol-1-yl)cyclopentyl)acetonitrile], the IC50 in assay [1] was 100 to 1000 nM; in assay [2], 10 to 100 nM; in assay [3], greater than 1000 nM; in assay [4] it was 100 to 1000 nM.

These data come from patent publication US8962596B2 (Array BioPharma Inc., priority 2010, dated 2015).
